{"source": "patent US9757375B2", "about": "“Compounds that inhibit human DNA ligases and methods of treating cancer” (University of Maryland, Baltimore, priority 2007, dated 2017)", "system": "Human DNA ligases I, III and IV and T4 DNA ligase", "assay": "Step 2 of the ligation reaction: DNA-AMP (DNA-adenylate) formation on non-ligatable nick", "format": "biochemical", "experimental": "To analyze step 2 of the ligation reaction, labeled ligase-AMP intermediates (10 pmol (22)) were incubated overnight at 25° C. with an unlabeled nonligatable version (dideoxy residue at the 3′-terminus of the nick) of the DNA oligonucleotide substrate (10 pmol), either in the presence or absence of the ligase inhibitors (100 μmol/L).\nSince the final two steps of the ligation reaction involve interactions with DNA, we examined the effects of the ligase inhibitors on the second (FIG. 3B) (The labeled ligase-adenylate form of human DNA ligases I, III and IV and T4 DNA ligase were incubated with a linear DNA substrate containing a single non-ligatable nick in the absence or presence of compounds 67, 82 and 189 (100 μM). After separation by denaturing gel electrophoresis, the labeled DNA-AMP complex was detected by phosphorimaging (26)) and third steps (FIG. 3C) of the ligation reaction using established assays (25,26) (Non-adenylated human DNA ligases I, III and IV and T4 DNA ligase were incubated with labeled DNA-AMP in the absence or presence of compounds 67, 82 and 189 (100 μM). After separation by denaturing gel electrophoresis, labeled ligated DNA was detected by phosphorimaging (25))."}
{"smiles": "Nc1nc(S)nc(O)c1/N=C/c1ccccc1", "note": "[Compound 189]", "values": [{"measurement": "inhibition of step 2 of the ligation reaction", "setting": "100 μM, FIG. 3B", "value": "inhibits step 2"}, {"measurement": "Mechanism: ligation step inhibited (2nd step)", "setting": "Table 5A", "value": 2, "unit": "nd"}]}
